Here are results for 17 molecules from patent publication US9394310B2, “Carbocycle-substituted purine and 7-deazapurine compounds” (Epizyme, Inc., priority 2010, dated 2016).

For orientation: IC50 means the concentration that inhibits the measured activity by half. A lower IC50 goes with greater potency in that assay.

Counter-ions that a name gives are not always drawn.

The target of the experiment is T1, DOT1L (1-416) (Homo sapiens, UniProt Q8TEK3).
T1 construct: 40 μl per well of DOT1L (1-416) (0.25 nM final concentration in assay buffer)
T1 sequence (Q8TEK3 1-416): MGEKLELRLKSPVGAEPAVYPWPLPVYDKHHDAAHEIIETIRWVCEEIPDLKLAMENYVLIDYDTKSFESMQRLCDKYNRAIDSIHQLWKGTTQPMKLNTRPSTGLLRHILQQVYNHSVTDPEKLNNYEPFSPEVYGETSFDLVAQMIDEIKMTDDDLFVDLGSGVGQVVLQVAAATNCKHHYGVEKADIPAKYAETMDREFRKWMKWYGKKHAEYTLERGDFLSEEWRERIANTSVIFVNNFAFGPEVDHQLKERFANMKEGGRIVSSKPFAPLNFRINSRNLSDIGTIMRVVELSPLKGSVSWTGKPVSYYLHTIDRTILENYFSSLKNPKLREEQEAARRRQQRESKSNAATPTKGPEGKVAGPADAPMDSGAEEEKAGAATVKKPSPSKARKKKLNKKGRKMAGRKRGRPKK
The experiment is described as follows: Determination of IC50: DOT1L (1-416) methyltransferase assay with 3H-SAM and oligonucleosome, Flashplate scintillation readout. Format: biochemical. Particulars: 0.25 nM DOT1L (1-416), 30 min preincubation, 120 min reaction at room temperature, oligonucleosome substrate. Here is the method:
Compound was serially diluted 3 fold in DMSO for 10 points and 1 μl was plated in a 384 well microtiter plate. Positive control (100% inhibition standard) was 2.5 uM final concentration of S-adenosyl-L-homocysteine and negative control (0% inhibition standard) contained 1 μl of DMSO. Compound was then incubated for 30 minutes with 40 μl per well of DOT1L (1-416) (0.25 nM final concentration in assay buffer: 20 mM TRIS, pH 8.0, 10 mM NaCl, 0.002% Tween20, 0.005% Bovine Skin Gelatin, 100 mM KCl, and 0.5 mM DTT). 10 μl per well of substrate mix (same assay buffer with 200 nM S—[methyl-^3H]-adenosyl-L methionine, 600 nM of unlabeled […], and 20 nM oligonucleosome) was added to initiate the reaction. Reaction was incubated for 120 minutes at room temperature and quenched with 10 μl per well of 100 μM S-methyl-adenosyl-L methionine. For detection, substrate from 50 μl of reaction was immobilized on a 384 well Streptavidin coated Flashplate (Perkin Elmer) (also coated with 0.2% polyethyleneimine) and read on a Top Count scintillation counter (Perkin Elmer).
As to `CN(CCCCc1nc2ccc(C(F)(F)F)cc2[nH]1)C[C@H]1C[C@@H](n2ccc3c(NC4CC4)ncnc32)[C@H](O)[C@@H]1O` [Compound 7, (1R,2S,3R,5R)-3-(4-(cyclopropylamino)-7H-pyrrolo[2,3-d]pyrimidin-7-yl)-5-((methyl(4-(6-(trifluoromethyl)-1H-benzo[d]imidazol-2-yl)butyl)amino)methyl)-cyclopentane-1,2-diol], the IC50 is below 100 nM.

In turn, `CN(CCCCc1nc2cc(C(F)(F)F)c(Cl)cc2[nH]1)C[C@H]1C[C@@H](n2ccc3c(NC4CC4)ncnc32)[C@H](O)[C@@H]1O` [Compound 5, (1S,2R,3R,5R)-3-(((4-(6-chloro-5-(trifluoromethyl)-1H-benzo[d]imidazol-2-yl)butyl)(methyl)amino)methyl)-5-(4-(cyclopropylamino)-7H-pyrrolo[2,3-d]pyrimidin-7-yl)cyclopentane-1,2-diol] came in with an IC50 below 100 nM. The value for `CS(=O)(=O)N(CCCCc1nc2cc(Cl)c(Cl)cc2[nH]1)C[C@H]1C[C@@H](n2ccc3c(NC4CC4)ncnc32)[C@H](O)[C@@H]1O` [Compound 16, N-(((1R,2R,3S,4R)-4-(4-(cyclopropylamino)-7H-pyrrolo-[2,3-d]pyrimidin-7-yl)-2,3-dihydroxycyclopentyl)methyl)-N-(4-(5,6-dichloro-1H-benzo[d]imidazol-2-yl)butyl)methanesulfonamide] was below 10000 nM. The result for `CS(=O)(=O)N(CCCCc1nc2cc(C(F)(F)F)c(Cl)cc2[nH]1)C[C@H]1C[C@@H](n2ccc3c(N)ncnc32)[C@H](O)[C@@H]1O` [Compound 15, N-(((1R,2R,3S,4R)-4-(4-amino-7H-pyrrolo[2,3-d]pyrimidin-7-yl)-2,3-dihydroxycyclopentyl)methyl)-N-(4-(6-chloro-5-(trifluoromethyl)-1H-benzo[d]imidazol-2-yl)butyl)methanesulfonamide] reads below 1000 nM.

The molecule `CS(=O)(=O)N(CCCCc1nc2cc(C(F)(F)F)ccc2[nH]1)C[C@H]1C[C@@H](n2ccc3c(NC4CC4)ncnc32)[C@H](O)[C@@H]1O` [Compound 17, N-(((1R,2R,3S,4R)-4-(4-(cyclopropylamino)-7H-pyrrolo-[2,3-d]pyrimidin-7-yl)-2,3-dihydroxycyclopentyl)methyl)-N-(4-(5-(trifluoromethyl)-1H-benzo[d]imidazol-2-yl)butyl)methanesulfonamide] had a half-maximal inhibitory concentration (IC50) below 10000 nM. As for `CC(C)N(CCCCc1nc2cc(C(F)(F)F)c(Cl)cc2[nH]1)C[C@H]1C[C@@H](n2ccc3c(NC4CC4)ncnc32)[C@H](O)[C@@H]1O` [Compound 4, (1S,2R,3R,5R)-3-(((4-(6-chloro-5-(trifluoromethyl)-1H-benzo[d]imidazol-2-yl)butyl)(isopropyl)amino)methyl)-5-(4-(cyclopropylamino)-7H-pyrrolo[2,3-d]pyrimidin-7-yl)cyclopentane-1,2-diol], the IC50 was below 100 nM.

`CC(C)N(CCCCc1nc2ccc(C(F)(F)F)cc2[nH]1)C[C@H]1C[C@@H](n2ccc3c(NC4CC4)ncnc32)[C@H](O)[C@@H]1O` [Compound 6, (1R,2S,3R,5R)-3-(4-(cyclopropylamino)-7H-pyrrolo[2,3-d]pyrimidin-7-yl)-5-((isopropyl-(4-(6-(trifluoromethyl)-1H-benzo[d]imidazol-2-yl)butyl)amino)methyl)-cyclopentane-1,2-diol] displayed an IC50 below 100 nM.

Molecule `CC(C)(C)c1ccc2[nH]c(CCCCN(C[C@H]3C[C@@H](n4ccc5c(NC6CC6)ncnc54)[C@H](O)[C@@H]3O)S(C)(=O)=O)nc2c1` [Compound 11, N-(4-(5-(tert-butyl)-1H-benzo[d]imidazol-2-yl)butyl)-N-(((1R,2R,3S,4R)-4-(4-(cyclopropylamino)-7H-pyrrolo[2,3-d]pyrimidin-7-yl)-2,3-dihydroxycyclopentyl)methyl)-methanesulfonamide] had an IC50 below 1000 nM.

As for `CC(C)N(CCCCc1nc2cc(Cl)c(Cl)cc2[nH]1)C[C@H]1C[C@@H](n2ccc3c(NC4CC4)ncnc32)[C@H](O)[C@@H]1O` [Compound 9, (1R,2S,3R,5R)-3-(4-(cyclopropylamino)-7H-pyrrolo[2,3-d]pyrimidin-7-yl)-5-(((4-(5,6-dichloro-1H-benzo[d]imidazol-2-yl)butyl)(isopropyl)amino)methyl)-cyclopentane-1,2-diol trihydrochloride], the IC50 was below 100 nM. In turn, `CN(CCCCc1nc2cc(Cl)c(Cl)cc2[nH]1)C[C@H]1C[C@@H](n2ccc3c(NC4CC4)ncnc32)[C@H](O)[C@@H]1O` [Compound 8, (1R,2S,3R,5R)-3-(4-(cyclopropylamino)-7H-pyrrolo[2,3-d]pyrimidin-7-yl)-5-(((4-(5,6-dichloro-1H-benzo[d]imidazol-2-yl)butyl)(methyl)amino)methyl)-cyclopentane-1,2-diol] yielded an IC50 below 100 nM. For `CC(C)N(CCCCc1nc2cc(C(C)(C)C)ccc2[nH]1)C[C@H]1C[C@@H](n2ccc3c(N)ncnc32)[C@H](O)[C@@H]1O` [Compound 1, (1R,2S,3R,5R)-3-(4-amino-7H-pyrrolo[2,3-d]pyrimidin-7-yl)-5-(((4-(5-tert-butyl-1H-benzo[d]imidazol-2-yl)butyl)(isopropyl)amino)methyl)-cyclopentane-1,2-diol], the IC50 is below 100 nM.

Regarding `CC(C)N(CCCCc1nc2cc(C(F)(F)F)c(Cl)cc2[nH]1)C[C@H]1C[C@@H](n2ccc3c(N)ncnc32)[C@H](O)[C@@H]1O` [Compound 14, (1R,2S,3R,5R)-3-(4-amino-7H-pyrrolo[2,3-d]pyrimidin-7-yl)-5-(((4-(6-chloro-5-(trifluoromethyl)-1H-benzo[d]imidazol-2-yl)butyl)(isopropyl)amino)methyl)-cyclopentane-1,2-diol], the concentration for half-maximal inhibition (IC50) is below 100 nM. `CS(=O)(=O)N(CCCCc1nc2cc(C(F)(F)F)c(Cl)cc2[nH]1)C[C@H]1C[C@@H](n2ccc3c(NC4CC4)ncnc32)[C@H](O)[C@@H]1O` [Compound 12, N-(4-(6-chloro-5-(trifluoromethyl)-1H-benzo[d]imidazol-2-yl)butyl)-N-(((1R,2R,3S,4R)-4-(4-(cyclopropylamino)-7H-pyrrolo[2,3-d]pyrimidin-7-yl)-2,3-dihydroxycyclopentyl)methyl)-methanesulfonamide] displayed an IC50 below 1000 nM.

As for `CN(CCCCc1nc2cc(C(F)(F)F)c(Cl)cc2[nH]1)C[C@H]1C[C@@H](n2ccc3c(N)ncnc32)[C@H](O)[C@@H]1O` [Compound 13, (1R,2S,3R,5R)-3-(4-amino-7H-pyrrolo[2,3-d]pyrimidin-7-yl)-5-(((4-(6-chloro-5-(trifluoromethyl)-1H-benzo[d]imidazol-2-yl)butyl)(methyl)amino)methyl)-cyclopentane-1,2-diol], the IC50 is below 100 nM. In turn, `CN(CCCNC(=O)Nc1ccc(C(C)(C)C)cc1)C[C@@H]1C[C@@H](n2cnc3c(N)ncnc32)[C@H](O)[C@@H]1O` [Compound 3, 1-(3-((((1S,2R,3S,4R)-4-(6-amino-9H-purin-9-yl)-2,3-dihydroxycyclopentyl)methyl)-(methyl)amino)propyl)-3-(4-(tert-butyl)phenyl)urea] had an IC50 below 1000 nM.

Take `CC(C)N(CCCCc1nc2cc(C(C)(C)C)ccc2[nH]1)C[C@@H]1C[C@@H](n2ccc3c(N)ncnc32)[C@H](O)[C@@H]1O` [Compound 2, (1R,2S,3R,5S)-3-(4-amino-7H-pyrrolo[2,3-d]pyrimidin-7-yl)-5-(((4-(5-tert-butyl-1H-benzo[d]imidazol-2-yl)butyl)(isopropyl)amino)methyl)-cyclopentane-1,2-diol]: the IC50 was below 100 nM. The molecule `CN(CCCNC(=O)Nc1ccc(C(C)(C)C)cc1)C[C@H]1C[C@@H](n2cnc3c(N)ncnc32)[C@H](O)[C@@H]1O` [Compound 10, 1-(3-((((1R,2R,3S,4R)-4-(6-amino-9H-purin-9-yl)-2,3-dihydroxycyclopentyl)methyl)(meth-yl)amino)propyl)-3-(4-(tert-butyl)phenyl)urea] came in with an IC50 below 100 nM.
